# Experimental data taken from ChEMBL document CHEMBL1155749, “Five new polyoxygenated cholestane bisdesmosides from the bulbs of Galtonia candicans” (J Nat Prod, 2001).
# Tested on: HL-60
# Assay: Cytotoxicity against human HL60 cells after 72 hrs by MTT assay
# Assay type: functional, cell-based
# Conditions: HL-60, 72 h
row,Structure (SMILES),IC50
1,CC(=O)O[C@@H]1[C@@H](O)[C@H](C)O[C@@H](O[C@H]2C[C@H]3[C@@H]4CC=C5C[C@@H](O[C@@H]6O[C@H](CO)[C@@H](O)[C@H](O)[C@H]6O)CC[C@]5(C)[C@H]4CC[C@]3(C)[C@H]2[C@H](C)[C@@H](O)CC=C(C)C)[C@@H]1O,6.8 µg/mL
2,COc1cc([C@@H]2c3cc4c(cc3[C@@H](O[C@@H]3O[C@@H]5CO[C@@H](C)O[C@H]5[C@H](O)[C@H]3O)[C@H]3COC(=O)[C@H]23)OCO4)cc(OC)c1O [ETOPOSIDE],0.25 µg/mL
